In patent US9090645B2, “Therapeutic compositions and methods of treatment with capsianoside-type compounds” (BMB Patent Holding Corporation, priority 2006, dated 2015):
“And” between values parts separate entries of the source, which are not always exact repeats. Equal values may be shown once.

How the values were obtained:
[1] = system: capsaicin-treated hindpaw; assay: Analgesic Bioassay: rat hindpaw withdrawal latency assay; format: in vivo, Sprague-Dawley rats; conditions: for Avg. Cmpd. @ 5 min (hindpaw withdrawal latency): 5 min after compound on capsaicin-treated hindpaw; for Avg. Cmpd. @ 5 min (hindpaw withdrawal latency) / Avg. Cmpd. @ 20 min (hindpaw withdrawal latency) / Avg. Cmpd @ 30 min (hindpaw withdrawal latency): 498: 0.27 mg, 660: 0.33 mg; for Avg. Cmpd. @ 5 min (hindpaw withdrawal latency) / Avg. Cmpd. @ 20 min (hindpaw withdrawal latency) / Avg. Cmpd @ 30 min (hindpaw withdrawal latency) / Avg. Cap. @ 20 min (hindpaw withdrawal latency) / Avg. Cap. @ 25 min (hindpaw withdrawal latency) / Avg. Cap. @ 30 min (hindpaw withdrawal latency) / Avg. All Capsaicin (hindpaw withdrawal latency) / Avg. All Baselines (hindpaw withdrawal latency): n=5; for Avg. Cmpd. @ 20 min (hindpaw withdrawal latency): 20 min after compound on capsaicin-treated hindpaw; for Avg. Cmpd @ 30 min (hindpaw withdrawal latency): 30 min after compound on capsaicin-treated hindpaw; for Avg. Cap. @ 20 min (hindpaw withdrawal latency) / Avg. Cap. @ 25 min (hindpaw withdrawal latency) / Avg. Cap. @ 30 min (hindpaw withdrawal latency) / Avg. All Capsaicin (hindpaw withdrawal latency) / Avg. All Baselines (hindpaw withdrawal latency): Table 7; for Avg. Cap. @ 20 min (hindpaw withdrawal latency): 20 min post-capsaicin; for Avg. Cap. @ 20 min (hindpaw withdrawal latency) / Avg. Cap. @ 25 min (hindpaw withdrawal latency) / Avg. Cap. @ 30 min (hindpaw withdrawal latency) / Avg. All Capsaicin (hindpaw withdrawal latency): before compound; for Avg. Cap. @ 25 min (hindpaw withdrawal latency): 25 min post-capsaicin; for Avg. Cap. @ 30 min (hindpaw withdrawal latency): 30 min post-capsaicin; for Avg. All Capsaicin (hindpaw withdrawal latency): all post-capsaicin times; for Avg. All Baselines (hindpaw withdrawal latency): before any treatment
Description: A rat hindpaw assay was used to determine the therapeutic effectiveness of various extracts/compounds as analgesics in the present invention.
Sprague-Dawley rats (225-250 g, male) were anesthetized with urethane and placed on their sides on a disposable Chux pad. Both hindpaws for each rat were blackened with India ink which was allowed to dry for 10 minutes. An ELH projector lamp calibrated to a standard mW/cm^2 was used as a pain stimulus and was condensed into an area of 5×15 mm on each hindpaw and placed perpendicular to, and 72 mm from, each hindpaw.
Multiple baseline hindpaw withdrawal latency times were recorded (in seconds) for each medial and each lateral surface of each hindpaw. Subsequently, 100 μl of 1 μmolar capsaicin was applied with a pipette to cover one hindpaw of each animal and allowed to dry for 10 minutes, rendering the capsaicin-treated hindpaw hypersensitive to pain stimulus relative to the non-capsaicin treated hindpaw (and thereby decreasing the withdrawal latency period for the capsaicin-treated hindpaw relative to the non-treated hindpaw).
Both hindpaws were then re-blackened with India ink which was allowed to dry for 10 minutes, and hindpaw withdrawal latencies were recorded for both the capsaicin-treated and untreated hindpaws on both the medial and lateral aspects of both hindpaws at 20, 25 and 30 minutes. […] By contrast, only minor drops in the withdrawal latency periods of the untreated hindpaws was seen, and the effect that was observed is believed to be due to the central mechanism effect of capsaicin-treatment on the other hindpaw.
To determine the analgesic properties of each fraction, 100 μl of each fraction were applied to the capsaicin-treated hindpaw by pipette and permitted to dry (the untreated hindpaw was not treated with the fraction). Hindpaw withdrawal latencies were then recorded at 5, 20 and 30 minutes for both the capsaicin/fraction-treated hindpaw and the untreated hindpaw. An increase in the hindpaw withdrawal time was indicative of an analgesic effect by the applied fraction.

[2] = system: carrageenan-induced inflammation in air pouch; assay: Inflammation Bioassay: mouse air pouch assay (carrageenan), white blood cells in exudates; format: in vivo, mice
Description: A mouse air pouch assay was used to determine the therapeutic effectiveness of various extracts/compounds as anti-inflammatory agents in the present invention.
To induce air pouches, 10-15 week old mice were injected subcutaneously on the back with 3 ml of air.
On day 2, the pouches were reinflated with 1.5 m. of air.
On day 6, inflammation was induced by injecting 1 ml of a suspension of carrageenan (2% weight/volume in calcium-free and magnesium-free phosphate buffered saline (PBS) solution) into the air pouch.
100 μL of solution including test compounds were injected with the carrageenan (additional 100 μL of PBS were injected into the controls).
After 4 hours, the mice were sacrificed by including CO2 narcosis, the pouches were flushed with 2 ml of PBS, and exudates were harvested.
Exudates were diluted 1:1 with 0.015% methylene blue in PBS.
White blood cells were counted in a standard hemocytometer chamber (American Optical, Buffalo, N.Y.).

[3] = individual mice, 100 μL test solution injected with carrageenan, 4 hours

## C=C[C@](C)(CC/C=C(\C)CC/C=C(\C)CC(O)/C=C(\C)C(=O)O)O[C@@H]1OC(CO)[C@@H](O)C(O)C1O (relative stereo) [Compound 498, 14-(beta-D-glucopyranosyloxy)-4-hydroxy-2,6,10,14-tetramethyl-2,6,10,15-hexadecatetraenoic acid [4R-(2E,4R*,6E,10E,14S*)]]
[1]
  Avg. Cmpd. @ 5 min (hindpaw withdrawal latency): 13.6 s
  Avg. Cmpd. @ 20 min (hindpaw withdrawal latency): 9.4 s
  Avg. Cmpd @ 30 min (hindpaw withdrawal latency): 8.1 s
  Avg. Cap. @ 20 min (hindpaw withdrawal latency): 7.4 s
  Avg. Cap. @ 25 min (hindpaw withdrawal latency): 7.956 s
  Avg. Cap. @ 30 min (hindpaw withdrawal latency): 5.4 s
  Avg. All Capsaicin (hindpaw withdrawal latency): 6.9 s
  Avg. All Baselines (hindpaw withdrawal latency): 10.77 s
[1]; Analgesic Bioassay (Example 1)
  analgesic activity (in words): strong analgesic effect

## C=C[C@](C)(CC/C=C(\C)CC/C=C(\C)CC(O)/C=C(\C)C(=O)O)O[C@@H]1OC(CO)[C@@H](O)C(O)C1O[C@@H]1OC(CO)[C@@H](O)C(O)C1O (stereo partly drawn) [Compound 660, capsianoside I]
[1]
  Avg. Cmpd. @ 5 min (hindpaw withdrawal latency): 10.5 s
  Avg. Cmpd. @ 20 min (hindpaw withdrawal latency): 9.6 s
  Avg. Cmpd @ 30 min (hindpaw withdrawal latency): 6.5 s
  Avg. Cap. @ 20 min (hindpaw withdrawal latency): 9.5 s
  Avg. Cap. @ 25 min (hindpaw withdrawal latency): 6.4 s
  Avg. Cap. @ 30 min (hindpaw withdrawal latency): 5.9 s
  Avg. All Capsaicin (hindpaw withdrawal latency): 7.3 s
  Avg. All Baselines (hindpaw withdrawal latency): 9.5 s
[2]; average of five mice, control mice (PBS) 2.67
  Average Cells (10^6/ml) (white blood cells in exudate): 1.54 10^6/ml
[2]; [3]
  Cells (10^6/ml) (white blood cells in exudate): 1.30 10^6/ml and 2.49 10^6/ml (2×) and 0.32 10^6/ml and 1.09 10^6/ml
  Cells/ml (white blood cells in exudate): 1.30E+06 Cells/ml and 2.49E+06 Cells/ml (2×) and 3.23E+05 Cells/ml and 1.09E+06 Cells/ml
[2]; mouse air pouch
  anti-inflammatory effects compared with methotrexate and dexamethasone: comparable to 0.5-1.0 mg/kg/week of chronic methotrexate, or 1.5 mg/kg acute dose of dexamethasone
